Test results: the NIST ThermoML archive (doi:10.1021/je900131q)
Values joined by “and” are separate entries in the source; they are usually repeats but may differ in a detail not shown here. Equal entries are not always repeated.

Conditions: Fluid (supercritical or subcritical phases); for mass density: Buoyancy - hydrostatic balance with magnetic suspension - one sinker; for viscosity: Vibrating wire viscometer

N#N [nitrogen]
Conditions | mass density | viscosity [mPa·s]
293.11 K, 1737.3 kPa | 20.04 kg/m3 | 0.01776
293.11 K, 8684.1 kPa | 100.062 kg/m3 | 0.01931
293.11 K, 12288 kPa | 140.108 kg/m3 | 0.02039
293.12 K, 3456.5 kPa | 39.956 kg/m3 | 0.01807
293.12 K, 5188.4 kPa | 60.007 kg/m3 | 0.01843
293.12 K, 6932.1 kPa | 80.084 kg/m3 | 0.01884
293.12 K, 16079 kPa | 180.081 kg/m3 | 0.02168
293.12 K, 22359 kPa | 240.226 kg/m3 | 0.02399
293.12 K, 24666 kPa | 260.273 kg/m3 | 0.0249
293.13 K, 14176 kPa | 160.309 kg/m3 | 0.02101
293.14 K, 1741.7 kPa | 20.088 kg/m3 | 0.01775
293.14 K, 5190.1 kPa | 60.028 kg/m3 | 0.01841
293.14 K, 5191.3 kPa | 60.033 kg/m3 | 0.0184
293.14 K, 6919.8 kPa | 79.938 kg/m3 | 0.01881
293.14 K, 6919.9 kPa | 79.937 kg/m3 | 0.01881
293.14 K, 18079 kPa | 200.088 kg/m3 | 0.02238
293.15 K, 168.17 kPa | 1.9327 kg/m3 | 0.01754
293.15 K, 257.03 kPa | 2.9592 kg/m3 | 0.01755
293.15 K, 257.04 kPa | 2.9569 kg/m3 | 0.01755
293.15 K, 260.16 kPa | 2.9879 kg/m3 | 0.01754
293.15 K, 348.59 kPa | 4.0063 kg/m3 | 0.01757
293.15 K, 348.6 kPa | 4.0116 kg/m3 | 0.01756
293.15 K, 434.63 kPa | 4.9978 kg/m3 | 0.01756
293.15 K, 438.44 kPa | 5.0442 kg/m3 | 0.01758
293.15 K, 438.45 kPa | 5.045 kg/m3 | 0.01758
293.15 K, 865.03 kPa | 9.9564 kg/m3 | 0.01763
293.15 K, 865.04 kPa | 9.9572 kg/m3 | 0.01763
293.15 K, 867.69 kPa | 9.9877 kg/m3 | 0.01763
293.15 K, 3452.3 kPa | 39.892 kg/m3 | 0.01805
293.15 K, 8683.4 kPa | 100.04 kg/m3 | 0.01928
293.16 K, 87.06 kPa | 1.0006 kg/m3 | 0.0175
293.16 K, 174.08 kPa | 2.0011 kg/m3 | 0.01753
293.16 K, 6917.3 kPa | 79.905 kg/m3 | 0.01881
293.16 K, 8683.4 kPa | 100.03 kg/m3 | 0.01928
293.16 K, 10467 kPa | 120.042 kg/m3 | 0.01983
293.16 K, 10724 kPa | 122.91 kg/m3 and 122.9 kg/m3 | 0.01987
293.16 K, 20166 kPa | 220.109 kg/m3 | 0.02316
293.16 K, 27067 kPa | 279.903 kg/m3 | 0.02585
293.16 K, 30306 kPa | 304.692 kg/m3 | 0.02713
293.17 K, 347.38 kPa | 3.995 kg/m3 | 0.01756
293.17 K, 434.86 kPa | 5.0007 kg/m3 | 0.01757
293.17 K, 30306 kPa | 304.691 kg/m3 | 0.02714
293.18 K, 69.62 kPa | 0.79943 kg/m3 | 0.01749
423.09 K, 1261.4 kPa | 9.9995 kg/m3 | 0.02309
423.09 K, 2533.5 kPa | 20.001 kg/m3 | 0.0232
423.09 K, 7760.6 kPa | 60.009 kg/m3 | 0.02382
423.09 K, 19172 kPa | 140.043 kg/m3 | 0.02569
423.09 K, 25569 kPa | 180.07 kg/m3 | 0.02695
423.1 K, 377.31 kPa | 2.9994 kg/m3 | 0.02301
423.1 K, 629.65 kPa | 5.0007 kg/m3 | 0.02304
423.1 K, 5117.5 kPa | 40.01 kg/m3 | 0.02347
423.1 K, 22320 kPa | 160.186 kg/m3 | 0.02629
423.11 K, 100.56 kPa | 0.79993 kg/m3 | 0.02294
423.11 K, 125.69 kPa | 0.99956 kg/m3 | 0.02295
423.11 K, 251.45 kPa | 1.9998 kg/m3 | 0.02299
423.11 K, 10470 kPa | 79.969 kg/m3 | 0.0242
423.11 K, 13263 kPa | 99.939 kg/m3 | 0.02464
423.12 K, 503.26 kPa | 3.9997 kg/m3 | 0.02303
423.12 K, 16171 kPa | 120.044 kg/m3 | 0.02513
423.15 K, 30228 kPa | 206.995 kg/m3 | 0.02791
423.15 K, 30257 kPa | 207.176 kg/m3 | 0.02792
423.16 K, 30225 kPa | 206.975 kg/m3 | 0.02791

[He] [helium]
Conditions | mass density | viscosity [mPa·s]
293.13 K, 27527 kPa | 39.805 kg/m3 | 0.01975
293.14 K, 2446 kPa | 3.967 kg/m3 | 0.01958
293.14 K, 16374 kPa | 24.912 kg/m3 | 0.01958
293.14 K, 20744 kPa | 30.969 kg/m3 | 0.01962
293.14 K, 27529 kPa | 39.804 kg/m3 | 0.01975
293.15 K, 122.25 kPa | 0.19885 kg/m3 | 0.01954
293.15 K, 245.73 kPa | 0.40368 kg/m3 | 0.01958
293.15 K, 366.51 kPa | 0.59858 kg/m3 | 0.01959
293.15 K, 366.53 kPa | 0.60087 kg/m3 | 0.01959
293.15 K, 482.99 kPa | 0.79042 kg/m3 | 0.01959
293.15 K, 483 kPa | 0.79119 kg/m3 | 0.01959
293.15 K, 1219.9 kPa | 1.9866 kg/m3 | 0.01959
293.15 K, 1827.5 kPa | 2.9695 kg/m3 | 0.01958
293.15 K, 1827.6 kPa | 2.9711 kg/m3 | 0.01958
293.15 K, 2466.2 kPa | 3.9699 kg/m3 | 0.01958
293.15 K, 3714.2 kPa | 5.9819 kg/m3 | 0.01957
293.15 K, 3714.3 kPa | 5.9857 kg/m3 | 0.01956
293.15 K, 4978.6 kPa | 7.974 kg/m3 | 0.01956
293.15 K, 4978.7 kPa | 7.9747 kg/m3 | 0.01956
293.15 K, 4995.9 kPa | 7.9672 kg/m3 | 0.01957
293.15 K, 7564.1 kPa | 11.972 kg/m3 | 0.01955
293.15 K, 7564.2 kPa | 11.972 kg/m3 | 0.01955
293.15 K, 8842.9 kPa | 13.917 kg/m3 and 13.915 kg/m3 | 0.01955
293.15 K, 10227 kPa | 15.922 kg/m3 | 0.01957
293.15 K, 12231 kPa | 18.954 kg/m3 | 0.01956
293.15 K, 14295 kPa | 21.949 kg/m3 | 0.01957
293.15 K, 14296 kPa | 21.953 kg/m3 | 0.01957
293.15 K, 14320 kPa | 21.908 kg/m3 | 0.01959
293.15 K, 16374 kPa | 24.913 kg/m3 | 0.01958
293.15 K, 18460 kPa | 27.833 kg/m3 and 27.831 kg/m3 | 0.0196
293.15 K, 20744 kPa | 30.973 kg/m3 | 0.01963
293.15 K, 22880 kPa | 33.856 kg/m3 | 0.01966
293.15 K, 22883 kPa | 33.861 kg/m3 | 0.01966
293.15 K, 22973 kPa | 33.811 kg/m3 | 0.01968
293.15 K, 25224 kPa | 36.797 kg/m3 | 0.01972
293.15 K, 25329 kPa | 37.097 kg/m3 and 37.099 kg/m3 | 0.01969
293.16 K, 245.73 kPa | 0.40445 kg/m3 | 0.01958
293.16 K, 613.17 kPa | 1.0037 kg/m3 | 0.01959
293.16 K, 613.18 kPa | 1.0029 kg/m3 | 0.01959
293.16 K, 2447.5 kPa | 3.9693 kg/m3 and 3.9647 kg/m3 | 0.01958
293.16 K, 3742.3 kPa | 5.9974 kg/m3 | 0.01958
293.16 K, 4996.2 kPa | 7.965 kg/m3 | 0.01957
293.16 K, 6263.9 kPa | 9.9737 kg/m3 and 9.9745 kg/m3 | 0.01956
293.16 K, 6273.2 kPa | 9.9551 kg/m3 | 0.01957
293.16 K, 7587 kPa | 11.953 kg/m3 | 0.01957
293.16 K, 14320 kPa | 21.907 kg/m3 | 0.01959
293.16 K, 22974 kPa | 33.812 kg/m3 | 0.01968
293.16 K, 25225 kPa | 36.795 kg/m3 | 0.01971
293.16 K, 30149 kPa | 43.152 kg/m3 | 0.0198
293.16 K, 30150 kPa | 43.152 kg/m3 | 0.0198
293.17 K, 3742.6 kPa | 5.9981 kg/m3 | 0.01958
293.17 K, 6273.4 kPa | 9.9566 kg/m3 | 0.01957
293.17 K, 6273.7 kPa | 9.9551 kg/m3 | 0.01957
293.17 K, 7587.3 kPa | 11.953 kg/m3 | 0.01957
293.17 K, 8869.8 kPa | 13.892 kg/m3 | 0.01957
293.17 K, 10198 kPa | 15.951 kg/m3 and 15.945 kg/m3 | 0.01955
293.17 K, 12237 kPa | 18.892 kg/m3 | 0.01958
293.17 K, 18562 kPa | 27.894 kg/m3 | 0.01962
293.18 K, 2466.6 kPa | 3.9663 kg/m3 | 0.01959
293.18 K, 8870.2 kPa | 13.894 kg/m3 | 0.01957
293.18 K, 10228 kPa | 15.928 kg/m3 | 0.01958
293.18 K, 12237 kPa | 18.892 kg/m3 | 0.01958
293.18 K, 16436 kPa | 24.919 kg/m3 | 0.01961
293.18 K, 18563 kPa | 27.897 kg/m3 | 0.01964
293.18 K, 22975 kPa | 33.81 kg/m3 | 0.01968
293.19 K, 16436 kPa | 24.919 kg/m3 | 0.01961
293.19 K, 18564 kPa | 27.893 kg/m3 | 0.01963
293.2 K, 20756 kPa | 30.909 kg/m3 | 0.01965
293.2 K, 20757 kPa | 30.907 kg/m3 | 0.01966
293.21 K, 30174 kPa | 43.24 kg/m3 | 0.0198
293.21 K, 30175 kPa | 43.241 kg/m3 and 43.243 kg/m3 | 0.01979
293.22 K, 30175 kPa | 43.244 kg/m3 | 0.0198
293.24 K, 1220.6 kPa | 1.9766 kg/m3 | 0.01959
293.25 K, 1220.7 kPa | 1.978 kg/m3 | 0.0196
293.25 K, 1827.1 kPa | 2.949 kg/m3 | 0.01959
293.26 K, 613.3 kPa | 0.99551 kg/m3 | 0.0196
293.26 K, 1827.3 kPa | 2.9512 kg/m3 | 0.01959
293.27 K, 489.97 kPa | 0.79365 kg/m3 | 0.0196
293.27 K, 490.02 kPa | 0.79727 kg/m3 | 0.0196
293.27 K, 613.45 kPa | 0.99623 kg/m3 | 0.0196
293.28 K, 121.3 kPa | 0.19968 kg/m3 | 0.01954
293.28 K, 121.33 kPa | 0.19895 kg/m3 | 0.01955
293.28 K, 244.14 kPa | 0.39719 kg/m3 | 0.01958
293.28 K, 244.19 kPa | 0.39791 kg/m3 | 0.01958
293.28 K, 366.66 kPa | 0.59687 kg/m3 | 0.01959
293.28 K, 366.7 kPa | 0.59542 kg/m3 | 0.01959
